Laboratory results as given in US20200253211A1, “PHOTODYNAMIC INHIBITION OF MICROBIAL PATHOGENS IN PLANTS” (SUNCOR ENERGY INC, priority 2017, published 2020).

Experiments:
Format in all cases: cell-based
Sclerotinia homoeocarpa [1] = assay: Radial growth of dollar spot fungus after treatment of plugs in PBS (24 well plates), dark vs light; conditions: for inhibition at 500 µM: Clarireedia homoeocarpa
Protocol: In this example, control of dollar spot fungus (Sclerotinia homoeocarpa) with chlorins combined with a chelating agent was assessed. Treatments were prepared in Phosphate Buffered Saline (PBS) in 24 well plates (in duplicates for light vs. dark incubation) at desired concentrations. Then, a 5 mm diameter plug of a Sclerotinia homoeocarpa isolate (3 isolates total tested) was inoculated into the PBS and incubated at 21° C. in the dark for 2 hours. After 2 hours, one of the 24 well plates (with isolates in triplicate) is left in the dark and one 24 well plate is placed under illumination for 1 hour (all at 21° C.). Following illumination, fungal plugs are removed from PBS, blotted dry on sterile filter paper and transferred to non-amended Potato Dextrose Agar (PDA). Radial growth of the fungus is monitored daily until the growth of S. homoeocarpa reaches the edge of the Petri-dish. Illumination is provided by LED lights emitting about 1000 μmol/m^2/s photosynthetically active radiation (PAR). In this example, control of dollar spot fungus (Sclerotinia homoeocarpa) with Zinc Protoporphyrin IX (Zn-PPIX) combined with EDTA was assessed. Treatments were prepared in Phosphate Buffered Saline (PBS) in 24 well plates (in duplicates for light vs. dark incubation) at desired concentrations. Then, a 5 mm diameter plug of a Sclerotinia homoeocarpa isolate (3 isolates total tested) was inoculated into the PBS and incubated at 21° C. in the dark for 2 hours. After 2 hours, one of the 24 well plates (with isolates in triplicate) is left in the dark and one 24 well plate is placed under illumination for 1 hour (all at 21° C.). Following illumination, fungal plugs are removed from PBS, blotted dry on sterile filter paper and transferred to non-amended Potato Dextrose Agar (PDA). Radial growth of the fungus is monitored daily until the growth of S. homoeocarpa reaches the edge of the Petri-dish. Illumination is provided by LED lights emitting about 1000 μmol/m^2/s photosynthetically active radiation (PAR). In this example, control of dollar spot fungus (Sclerotinia homoeocarpa) with bacteriochlorin combined with EDTA was assessed. Treatments were prepared in Phosphate Buffered Saline (PBS) in 24 well plates (in duplicates for light vs. dark incubation) at desired concentrations. Then, a 5 mm diameter plug of a Sclerotinia homoeocarpa isolate (3 isolates total tested) was inoculated into the PBS and incubated at 21° C. in the dark for 2 hours. After 2 hours, one of the 24 well plates (with isolates in triplicate) is left in the dark and one 24 well plate is placed under illumination for 1 hour (all at 21° C.). Following illumination, fungal plugs are removed from PBS, blotted dry on sterile filter paper and transferred to non-amended Potato Dextrose Agar (PDA). Radial growth of the fungus is monitored daily until the growth of S. homoeocarpa reaches the edge of the Petri-dish. Illumination is provided by LED lights emitting about 1000 μmol/m^2/s photosynthetically active radiation (PAR). In this example, control of dollar spot fungus (Sclerotinia homoeocarpa) with Aluminum chlorin e6 combined with EDTA was assessed. Treatments were prepared in Phosphate Buffered Saline (PBS) in 24 well plates (in duplicates for light vs. dark incubation) at desired concentrations. Then, a 5 mm diameter plug of a Sclerotinia homoeocarpa isolate (3 isolates total tested) was inoculated into the PBS and incubated at 21° C. in the dark for 2 hours. After 2 hours, one of the 24 well plates (with isolates in triplicate) is left in the dark and one 24 well plate is placed under illumination for 1 hour (all at 21° C.). Following illumination, fungal plugs are removed from PBS, blotted dry on sterile filter paper and transferred to non-amended Potato Dextrose Agar (PDA). Radial growth of the fungus is monitored daily until the growth of S. homoeocarpa reaches the edge of the Petri-dish. Illumination is provided by LED lights emitting about 1000 μmol/m^2/s photosynthetically active radiation (PAR). […]

Erwinia amylovora = assay: Photodynamic inactivation of Erwinia amylovora grown in liquid medium, CFU counted on plates; conditions: Table 1
Protocol: E. amylovora is grown in liquid medium. Samples are incubated for 30 min with 100 μM of Mg-Chlorophyllin with or without 5 mM of Disodium-EDTA, and then illuminated with 395 nm (fluence 26.6 J cm^−2) for 30 mins. CFU of the bacteria is counted on the plates.
In the experiment, E. amylovora were grown in liquid medium. Samples were incubated for 30 min with 100 μM of Mg-Chlorophyllin with or without Chelators, and then illuminated with 395 nm (fluence 26.6 J cm^−2) for 30 mins. CFU of the bacteria was counted on the plates.

E. Coli K-12 = assay: E. Coli assay under LED lamps, colony count; conditions: light
Protocol: Regarding the E. Coli assay tests in the above examples, the following procedure was used: • 1. E. Coli K-12 inoculated in 5 mL TSB and placed in a shaking incubator overnight. • 2. Dilute culture in 500 mL PBS (˜10̂8 CFU/mL) and placed in shaking incubator for 30 minutes at […]. • 3.15 mL samples created using 12 mL culture and a mixture of PBS buffer and sample compounds. • 4. Placed under LED lamps for 2 hours (40 W/m^2). • 5. Samples diluted to 10^−4 and culture controls diluted to 10^−5 for plating through series dilutions. • 6. 0.1 mL plated of each sample in triplicates on TSA base (10^−3 and 10^−4 for samples. 10^−4 and 10^−5 for controls). • 7. Incubated overnight at 37° C. • 8. Colonies counted next morning and recorded.

Xanthomonas axonopodis = Xanthomonas axonopodis count after photodynamic treatment in liquid medium; conditions: Mg-Chlorophyllin alone; same protocol as Example 1
Protocol: Xanthomonas axonopodis are bacterial pathogens that cause citrus canker. Citrus canker is a highly contagious plant disease than can destroy an entire crop field. […] Positive results were obtained at several chlorophyllin concentrations and exposure times.
Xanthomonas were grown in liquid medium. Samples were incubated for 30 mins or 5 mins with Mg-Chlorophyllin and with Disodium-EDTA for 30 mins, and then illuminated with 395 nm (fluence 26.6 J cm−2) for 30 mins. CFU of the bacteria was counted on the plates.

Sclerotinia homoeocarpa [2] = assay: Radial growth of dollar spot fungus on amended Potato Dextrose Agar, dark vs light; conditions: rate 31 μM
[3] = Table 22A, dark, rate 500 μM, growth between 48 and 72 hours
[4] = Table 22B, light, rate 500 μM, growth between 48 and 72 hours

O=C(O)CN(CCN(CC(=O)O)CC(=O)O)CC(=O)O [EDTA, disodium EDTA]
inhibition at 500 µM (Sclerotinia homoeocarpa [1]; Table 18A, dark, rate 500 μM): 39.8% | inhibition at 500 µM (Sclerotinia homoeocarpa [1]; Table 18B, light, rate 500 μM): 16.6% | inhibition at 500 µM (Sclerotinia homoeocarpa [1]; Table 19A, light, rate 500 μM): 36% | inhibition at 500 µM (Sclerotinia homoeocarpa [1]; Table 20A, dark, rate 500 μM): 32.8% | inhibition at 500 µM (Sclerotinia homoeocarpa [1]; Table 20B, light, rate 500 μM): 33.5% | inhibition at 500 µM (Sclerotinia homoeocarpa [1]; Table 21A, dark, rate 500 μM): 11.6% | inhibition at 500 µM (Sclerotinia homoeocarpa [1]; Table 21B, light, rate 500 μM): 15.3% | inhibition at 500 µM (Sclerotinia homoeocarpa [1]; [3]): -3.89% | inhibition at 500 µM (Sclerotinia homoeocarpa [1]; [4]): 35.2% | inhibition at 500 µM (Sclerotinia homoeocarpa [1]; Table 31A, dark, rate 500 μM): 13.6% | inhibition at 500 µM (Sclerotinia homoeocarpa [1]; Table 31B, light, rate 500 μM): 36.4% | Mean Radial Growth (Sclerotinia homoeocarpa [1]; Table 18A, dark, rate 500 μM): 6.72 mm | Mean Radial Growth (Sclerotinia homoeocarpa [1]; Table 18B, light, rate 500 μM): 9.22 mm | Mean Radial Growth (Sclerotinia homoeocarpa [1]; Table 19A, light, rate 500 μM): 7.11 mm | Mean Radial Growth (Sclerotinia homoeocarpa [1]; Table 20A, dark, rate 500 μM): 7.17 mm | Mean Radial Growth (Sclerotinia homoeocarpa [1]; Table 20B, light, rate 500 μM): 7.17 mm | Mean Radial Growth (Sclerotinia homoeocarpa [1]; Table 21A, dark, rate 500 μM): 11.06 mm | Mean Radial Growth (Sclerotinia homoeocarpa [1]; Table 21B, light, rate 500 μM): 10.78 mm | Mean Radial Growth (Sclerotinia homoeocarpa [1]; [3]): 14.83 mm | Mean Radial Growth (Sclerotinia homoeocarpa [1]; [4]): 8.89 mm | Mean Radial Growth (Sclerotinia homoeocarpa [1]; Table 31A, dark, rate 500 μM): 12.67 mm | Mean Radial Growth (Sclerotinia homoeocarpa [1]; Table 31B, light, rate 500 μM): 8.17 mm | Relative inactivation, CFU (Erwinia amylovora; EDTA 5 mM alone, in light): 11.1

C=Cc1c(C)c2cc3nc(c(CC(=O)[O-])c4[n-]c(cc5nc(cc1[n-]2)C(C)=C5CC)c(C)c4C(=O)[O-])C(CCC(=O)[O-])C3C.[Mg+2].[Na+].[Na+].[Na+] (stereo not shown) [Mg-Chlorophyllin, Mg-chlorophyllin]
% Inhibition (Sclerotinia homoeocarpa [1]; Table 18A, dark, rate 10 μM): −3.98% | Mean Radial Growth (Sclerotinia homoeocarpa [1]; Table 18A, dark, rate 10 μM): 11.61 mm | % Inhibition (Sclerotinia homoeocarpa [1]; Table 18A, dark, rate 100 μM): −11.94% | Mean Radial Growth (Sclerotinia homoeocarpa [1]; Table 18A, dark, rate 100 μM): 12.50 mm | % Inhibition (Sclerotinia homoeocarpa [1]; Table 18B, light, rate 10 μM): 31.66% | Mean Radial Growth (Sclerotinia homoeocarpa [1]; Table 18B, light, rate 10 μM): 7.56 mm | % Inhibition (Sclerotinia homoeocarpa [1]; Table 18B, light, rate 100 μM): 22.61% | Mean Radial Growth (Sclerotinia homoeocarpa [1]; Table 18B, light, rate 100 μM): 8.56 mm | % Inhibition (Sclerotinia homoeocarpa [1]; Table 25A, dark, rate 5 μM): 1.04% | Mean Radial Growth (Sclerotinia homoeocarpa [1]; Table 25A, dark, rate 5 μM): 10.56 mm | % Inhibition (Sclerotinia homoeocarpa [1]; Table 25B, light, rate 5 μM): 37.76% | Mean Radial Growth (Sclerotinia homoeocarpa [1]; Table 25B, light, rate 5 μM): 6.78 mm | % Inactivation (E. Coli K-12; Table 10, 1 μM MgChln): 95.0% | CFU/mL (E. Coli K-12; Table 10, 1 μM MgChln): 2.73E+05 CFU/mL | LogCFU/mL (E. Coli K-12; Table 10, 1 μM MgChln): 5.44 LogCFU/mL | % Inactivation (E. Coli K-12; Table 10, 10 μM MgChln): 97.6% | CFU/mL (E. Coli K-12; Table 10, 10 μM MgChln): 1.30E+05 CFU/mL | LogCFU/mL (E. Coli K-12; Table 10, 10 μM MgChln): 5.11 LogCFU/mL | % Inactivation (E. Coli K-12; Table 11, 1 μM MgChln): 86.1% | CFU/mL (E. Coli K-12; Table 11, 1 μM MgChln): 9.07E+05 CFU/mL | LogCFU/mL (E. Coli K-12; Table 11, 1 μM MgChln): 5.96 LogCFU/mL | % Inactivation (E. Coli K-12; Table 12, 1 μM MgChln): 91.3% | CFU/mL (E. Coli K-12; Table 12, 1 μM MgChln): 6.13E+05 CFU/mL | LogCFU/mL (E. Coli K-12; Table 12, 1 μM MgChln): 5.79 LogCFU/mL | control of Xanthomonas axonopodis (Xanthomonas axonopodis): little effect | % Inhibition (Sclerotinia homoeocarpa [2]; Table 7A, dark): 24.1% | Mean Radial Growth (Sclerotinia homoeocarpa [2]; Table 7A, dark): 11.2 mm | % Inhibition (Sclerotinia homoeocarpa [2]; Table 7B, light): 51.0% | Mean Radial Growth (Sclerotinia homoeocarpa [2]; Table 7B, light): 6.6 mm | % Inhibition (Sclerotinia homoeocarpa [2]; Table 14A, dark): 32.5% | Mean Radial Growth (Sclerotinia homoeocarpa [2]; Table 14A, dark): 9.1 mm | % Inhibition (Sclerotinia homoeocarpa [2]; Table 14B, light): 59.2% | Mean Radial Growth (Sclerotinia homoeocarpa [2]; Table 14B, light): 5.3 mm | % Inhibition (Sclerotinia homoeocarpa [2]; Table 15A, dark): 32.5% | Mean Radial Growth (Sclerotinia homoeocarpa [2]; Table 15A, dark): 9.1 mm | % Inhibition (Sclerotinia homoeocarpa [2]; Table 15B, light): 59.2% | Mean Radial Growth (Sclerotinia homoeocarpa [2]; Table 15B, light): 5.3 mm | Relative inactivation, CFU (Erwinia amylovora; Mg-Chlorophyllin 100 μM without EDTA, in light (395 nm, 30 mins)): 1.9
